In patent publication US12097204B2, “Solid pharmaceutical composition containing 1,3,5-triazine derivative or salt thereof” (CHIA TAI TIANQING PHARMACEUTICAL GROUP CO., LTD., priority 2018, dated 2024):

Experiment: Solubility of the compound of formula I
Assay type: physicochemical

Q: For `CC(C)(C)ONc1nc(Nc2ccnc(C(F)(F)F)c2)nc(-c2cccc(C(F)(F)F)n2)n1` [compound of formula I, 4-(tert-butoxyamino)-6-(6-(trifluoromethyl)pyridin-2-yl)-N-(2-(trifluoromethyl)pyridin-4-yl)-1,3,5-triazin-2-amine], which “Solubility in either acidic or basic condition” value (acidic or basic condition) is on record?
A: poor solubility

Q: What about the Solubility in water (water) of the same compound?
A: hardly soluble
